Measured values reported in ChEMBL document CHEMBL1201862, “PubChem BioAssay data set” (2004).
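Interpolation was linear, between the two tested concentrations surrounding the appropriate level; five concentrations were tested over 48 hours in 96-well plates. GI50 marks 50% less growth.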 The source made the active and inactive calls. No stated cut-off is given here; in the data, active = GI50 up to about 1.1 µM and inactive = higher.

Columns and labels:
Test in all cases: inhibition of tumour cell growth, NCI panel, 48 h
A498 = tested on: A498
ACHN = tested on: ACHN
EKVX = tested on: EKVX
HCT-15 = tested on: HCT-15
IGROV-1 = tested on: IGROV-1
LXFL 529 = tested on: LXFL 529
M14 = tested on: M14
NCI-H226 = tested on: NCI-H226
NCI-H23 = tested on: NCI-H23
NCI-H460 = tested on: NCI-H460
OVCAR-4 = tested on: OVCAR-4
SK-MEL-28 = tested on: SK-MEL-28
SK-MEL-5 = tested on: SK-MEL-5
SK-OV-3 = tested on: SK-OV-3
SNB-19 = tested on: SNB-19
SNB-75 = tested on: SNB-75
TK-10 = tested on: TK-10
UO-31 = tested on: UO-31

Row | SMILES | GI50 (A498) | GI50 (ACHN) | GI50 (EKVX) | GI50 (HCT-15) | GI50 (IGROV-1) | GI50 (LXFL 529) | GI50 (M14) | GI50 (NCI-H226) | GI50 (NCI-H23) | GI50 (NCI-H460) | GI50 (OVCAR-4) | GI50 (SK-MEL-28) | GI50 (SK-MEL-5) | GI50 (SK-OV-3) | GI50 (SNB-19) | GI50 (SNB-75) | GI50 (TK-10) | GI50 (UO-31)
1 | COc1cc(O)c2c(c1)O[C@@H]1OCC[C@H]21 | > 100 µM (inactive) | > 100 µM (inactive) | > 100 µM (inactive) | > 100 µM | > 100 µM (inactive) | > 100 µM (inactive) | > 100 µM (inactive) | > 100 µM (inactive) | > 100 µM (inactive) | > 100 µM (inactive) | > 100 µM (inactive) | > 100 µM (inactive) | > 100 µM (inactive) | > 100 µM (inactive) | > 100 µM (inactive) | > 100 µM (inactive) | > 100 µM (inactive) | > 100 µM (inactive)
2 | N#CCc1nc2c(s1)C(=O)c1ccccc1C2=O | 32.7 µM (inactive) | 14.1 µM (inactive) | 14.4 µM (inactive) | 16.3 µM | 3.76 µM (inactive) | 15 µM (inactive) | 15.2 µM (inactive) | 19.8 µM (inactive) | 17.5 µM (inactive) | 21.7 µM (inactive) | 16.9 µM (inactive) | 18.2 µM (inactive) | 11.4 µM (inactive) | > 100 µM (inactive) | 21.4 µM (inactive) | 23.1 µM (inactive) | 21.8 µM (inactive) | 15.5 µM (inactive)
3 | CC(C)(C)C(=O)C(c1ccc(-c2cscn2)cc1)c1ccc(-c2cscn2)cc1 | 21.9 µM (inactive) | 32 µM (inactive) | 33.3 µM (inactive) | > 95.1 µM | 37.8 µM (inactive) | 39.7 µM (inactive) | 97.5 µM (inactive) | > 49.7 µM (inactive) | 30.5 µM (inactive) | 40.5 µM (inactive) | 3.25 µM (inactive) | 46.3 µM (inactive) | 38.1 µM (inactive) | 29.8 µM (inactive) | 28.1 µM (inactive) | 6.25 µM (inactive) | 31.9 µM (inactive) | 44.4 µM (inactive)
4 | CCOC(=O)NC(=O)c1cn(CCCOC(=O)NCCCCCCNC(=O)OCCCn2c(=O)c(C(=O)NC(=O)OCC)cn(C)c2=O)c(=O)n(C)c1=O | > 100 µM (inactive) | > 100 µM (inactive) |  | > 100 µM | > 100 µM (inactive) | > 100 µM (inactive) | > 100 µM (inactive) | > 100 µM (inactive) | > 100 µM (inactive) | > 100 µM (inactive) | > 100 µM (inactive) | > 100 µM (inactive) |  | > 100 µM (inactive) |  | 22.2 µM (inactive) | 88.7 µM (inactive) | > 100 µM (inactive)
5 | c1c[nH]c(Cc2nc(Cc3c[nH]cn3)c[nH]2)n1 | 9.79 µM (inactive) | 3.51 µM (inactive) | 4.49 µM (inactive) | 4.58 µM | 16.5 µM (inactive) | 6.7 µM (inactive) | 10.5 µM (inactive) | 11.2 µM (inactive) | 34.8 µM (inactive) | 24 µM (inactive) | 4.45 µM (inactive) | 28.2 µM (inactive) | 20.7 µM (inactive) | 9.29 µM (inactive) | 22.5 µM (inactive) | 35.6 µM (inactive) | 67.5 µM (inactive) | 
6 | CC(C)(C)C1CCP(=O)(c2ccccc2)CC1 (stereo unspecified) | > 100 µM (inactive) | > 100 µM (inactive) | > 100 µM (inactive) | > 100 µM | > 100 µM (inactive) | > 100 µM (inactive) | > 100 µM (inactive) | > 100 µM (inactive) | > 100 µM (inactive) | > 100 µM (inactive) | > 100 µM (inactive) | > 100 µM (inactive) | > 100 µM (inactive) | > 100 µM (inactive) | > 100 µM (inactive) | > 100 µM (inactive) | > 100 µM (inactive) | > 100 µM (inactive)
7 | Clc1cc2nc[nH]c2cc1Cl | 15.7 µM (inactive) | > 100 µM (inactive) | > 100 µM (inactive) | > 100 µM | > 100 µM (inactive) | > 100 µM (inactive) | > 100 µM (inactive) | 36.7 µM (inactive) | > 100 µM (inactive) | > 100 µM (inactive) | > 100 µM (inactive) | > 100 µM (inactive) |  | > 100 µM (inactive) | > 100 µM (inactive) | 18.3 µM (inactive) | > 100 µM (inactive) | 48.2 µM (inactive)
